Experimental data from the supplement of paper PMC10307832.

Assays:
Assay in all cases: relative viability (nuclei count vs DMSO), 5 days (fraction); higher = more cells survive
ChaGo-K-1 = tested on: ChaGo-K-1
Method in brief: (§1)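 Relative viability divides the nuclei count in treated wells by that in vehicle wells. Lung cancer cell lines were seeded in 1536-well plates, dosed by pin tool the next day, and fixed and stained after 5 days in one step with final 0.05% Triton X-100, 1% formaldehyde and 1 ug/ml Hoechst. Dosing was a single drug or a fixed anchor-drug dose plus five library-drug doses (not always all listed) in √10 steps, and values are medians of duplicate plates imaged at 4×.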

EMC-BAC-2 = tested on: EMC-BAC-2
Method in brief: as §1

EPLC-272H = tested on: EPLC-272H
Method in brief: as §1

H3255 = tested on: H3255
Method in brief: as §1

HCC-44 = tested on: HCC-44
Method in brief: as §1

HCC-827 = tested on: HCC-827
Method in brief: as §1

LCLC-103H = tested on: LCLC-103H
Method in brief: as §1

LCLC-97TM1 = tested on: LCLC-97TM1
Method in brief: as §1

NCI-H1355 = tested on: NCI-H1355
Method in brief: as §1

NCI-H1395 = tested on: NCI-H1395
Method in brief: as §1

NCI-H1563 = tested on: NCI-H1563
Method in brief: as §1

NCI-H1651 = tested on: NCI-H1651
Method in brief: as §1

NCI-H1793 = tested on: NCI-H1793
Method in brief: as §1

NCI-H1944 = tested on: NCI-H1944
Method in brief: as §1

NCI-H2023 = tested on: NCI-H2023
Method in brief: as §1

NCI-H2085 = tested on: NCI-H2085
Method in brief: as §1

NCI-H2087 = tested on: NCI-H2087
Method in brief: as §1

NCI-H2405 = tested on: NCI-H2405
Method in brief: as §1

NCI-H322M = tested on: NCI-H322M
Method in brief: as §1

NCI-H520 = tested on: NCI-H520
Method in brief: as §1

NCI-H650 = tested on: NCI-H650
Method in brief: as §1

SK-MES-1 = tested on: SK-MES-1
Method in brief: as §1

UMC-11 = tested on: UMC-11
Method in brief: as §1

## CC1(C)CCC(c2ccc(Cl)cc2)=C(CN2CCN(c3ccc(C(=O)NS(=O)(=O)c4ccc(N[C@H](CCN5CCOCC5)CSc5ccccc5)c(S(=O)(=O)C(F)(F)F)c4)cc3)CC2)C1 [Navitoclax] + Nc1nc2[nH]cc(CCc3ccc(C(=O)N[C@@H](CCC(=O)O)C(=O)O)cc3)c2c(=O)[nH]1 [Pemetrexed] (partner 0.2 µM)
ChaGo-K-1; first compound 0.005 µM
  relative viability: 0.258
ChaGo-K-1; first compound 0.01581 µM
  relative viability: 0.26
ChaGo-K-1; first compound 0.05 µM
  relative viability: 0.25
ChaGo-K-1; first compound 0.1581 µM
  relative viability: 0.268
ChaGo-K-1; first compound 0.5 µM
  relative viability: 0.265
EMC-BAC-2; first compound 0.005 µM
  relative viability: 0.433
EMC-BAC-2; first compound 0.01581 µM
  relative viability: 0.437
EMC-BAC-2; first compound 0.05 µM
  relative viability: 0.408
EMC-BAC-2; first compound 0.1581 µM
  relative viability: 0.423
EMC-BAC-2; first compound 0.5 µM
  relative viability: 0.419
EPLC-272H; first compound 0.005 µM
  relative viability: 0.312
EPLC-272H; first compound 0.01581 µM
  relative viability: 0.268
EPLC-272H; first compound 0.05 µM
  relative viability: 0.347
EPLC-272H; first compound 0.1581 µM
  relative viability: 0.354
EPLC-272H; first compound 0.5 µM
  relative viability: 0.343
H3255; first compound 0.005 µM
  relative viability: 0.664
H3255; first compound 0.01581 µM
  relative viability: 0.648
H3255; first compound 0.05 µM
  relative viability: 0.571
H3255; first compound 0.1581 µM
  relative viability: 0.581
H3255; first compound 0.5 µM
  relative viability: 0.545
HCC-44; first compound 0.005 µM
  relative viability: 0.633
HCC-44; first compound 0.01581 µM
  relative viability: 0.65
HCC-44; first compound 0.05 µM
  relative viability: 0.625
HCC-44; first compound 0.1581 µM
  relative viability: 0.603
HCC-44; first compound 0.5 µM
  relative viability: 0.558
HCC-827; first compound 0.005 µM
  relative viability: 0.27
HCC-827; first compound 0.01581 µM
  relative viability: 0.261
HCC-827; first compound 0.05 µM
  relative viability: 0.252
HCC-827; first compound 0.1581 µM
  relative viability: 0.23
HCC-827; first compound 0.5 µM
  relative viability: 0.258
LCLC-103H; first compound 0.005 µM
  relative viability: 0.473
LCLC-103H; first compound 0.01581 µM
  relative viability: 0.425
LCLC-103H; first compound 0.05 µM
  relative viability: 0.401
LCLC-103H; first compound 0.1581 µM
  relative viability: 0.442
LCLC-103H; first compound 0.5 µM
  relative viability: 0.368
LCLC-97TM1; first compound 0.005 µM
  relative viability: 0.182
LCLC-97TM1; first compound 0.01581 µM
  relative viability: 0.191
LCLC-97TM1; first compound 0.05 µM
  relative viability: 0.158
LCLC-97TM1; first compound 0.1581 µM
  relative viability: 0.156
LCLC-97TM1; first compound 0.5 µM
  relative viability: 0.204
NCI-H1355; first compound 0.005 µM
  relative viability: 0.998
NCI-H1355; first compound 0.01581 µM
  relative viability: 1.05
NCI-H1355; first compound 0.05 µM
  relative viability: 1.11
NCI-H1355; first compound 0.1581 µM
  relative viability: 1.03
NCI-H1355; first compound 0.5 µM
  relative viability: 1.07
NCI-H1395; first compound 0.005 µM
  relative viability: 0.763
NCI-H1395; first compound 0.01581 µM
  relative viability: 0.853
NCI-H1395; first compound 0.05 µM
  relative viability: 0.94
NCI-H1395; first compound 0.1581 µM
  relative viability: 0.86
NCI-H1395; first compound 0.5 µM
  relative viability: 0.913
NCI-H1563; first compound 0.005 µM
  relative viability: 0.656
NCI-H1563; first compound 0.01581 µM
  relative viability: 0.739
NCI-H1563; first compound 0.05 µM
  relative viability: 0.608
NCI-H1563; first compound 0.1581 µM
  relative viability: 0.805
NCI-H1563; first compound 0.5 µM
  relative viability: 0.861
NCI-H1651; first compound 0.005 µM
  relative viability: 0.682
NCI-H1651; first compound 0.01581 µM
  relative viability: 0.552
NCI-H1651; first compound 0.05 µM
  relative viability: 0.503
NCI-H1651; first compound 0.1581 µM
  relative viability: 0.633
NCI-H1651; first compound 0.5 µM
  relative viability: 0.548
NCI-H1793; first compound 0.005 µM
  relative viability: 0.72
NCI-H1793; first compound 0.01581 µM
  relative viability: 1.09
NCI-H1793; first compound 0.1581 µM
  relative viability: 0.828
NCI-H1793; first compound 0.5 µM
  relative viability: 0.643
NCI-H1944; first compound 0.005 µM
  relative viability: 0.611
NCI-H1944; first compound 0.01581 µM
  relative viability: 0.623
NCI-H1944; first compound 0.1581 µM
  relative viability: 0.597
NCI-H1944; first compound 0.5 µM
  relative viability: 0.534
NCI-H2023; first compound 0.005 µM
  relative viability: 0.229
NCI-H2023; first compound 0.01581 µM
  relative viability: 0.236
NCI-H2023; first compound 0.05 µM
  relative viability: 0.258
NCI-H2023; first compound 0.1581 µM
  relative viability: 0.214
NCI-H2023; first compound 0.5 µM
  relative viability: 0.201
NCI-H2085; first compound 0.005 µM
  relative viability: 0.812
NCI-H2085; first compound 0.01581 µM
  relative viability: 1.2
NCI-H2085; first compound 0.05 µM
  relative viability: 0.852
NCI-H2085; first compound 0.1581 µM
  relative viability: 0.931
NCI-H2085; first compound 0.5 µM
  relative viability: 0.894
NCI-H2087; first compound 0.005 µM
  relative viability: 0.689
NCI-H2087; first compound 0.01581 µM
  relative viability: 0.697
NCI-H2087; first compound 0.1581 µM
  relative viability: 0.686
NCI-H2087; first compound 0.5 µM
  relative viability: 0.675
NCI-H2405; first compound 0.005 µM
  relative viability: 1.02
NCI-H2405; first compound 0.01581 µM
  relative viability: 1.07
NCI-H2405; first compound 0.05 µM
  relative viability: 1.11
NCI-H2405; first compound 0.1581 µM
  relative viability: 0.994
NCI-H2405; first compound 0.5 µM
  relative viability: 0.896
NCI-H322M; first compound 0.005 µM
  relative viability: 0.661
NCI-H322M; first compound 0.01581 µM
  relative viability: 0.651
NCI-H322M; first compound 0.05 µM
  relative viability: 0.65
NCI-H322M; first compound 0.1581 µM
  relative viability: 0.651
NCI-H322M; first compound 0.5 µM
  relative viability: 0.649
NCI-H520; first compound 0.005 µM
  relative viability: 0.713
NCI-H520; first compound 0.01581 µM
  relative viability: 0.743
NCI-H520; first compound 0.05 µM
  relative viability: 0.699
NCI-H520; first compound 0.1581 µM
  relative viability: 0.571
NCI-H520; first compound 0.5 µM
  relative viability: 0.681
NCI-H650; first compound 0.005 µM
  relative viability: 0.9
NCI-H650; first compound 0.01581 µM
  relative viability: 1.05
NCI-H650; first compound 0.05 µM
  relative viability: 0.908
NCI-H650; first compound 0.1581 µM
  relative viability: 0.95
NCI-H650; first compound 0.5 µM
  relative viability: 0.999
SK-MES-1; first compound 0.005 µM
  relative viability: 0.913
SK-MES-1; first compound 0.01581 µM
  relative viability: 1.05
SK-MES-1; first compound 0.05 µM
  relative viability: 1.03
SK-MES-1; first compound 0.1581 µM
  relative viability: 0.884
SK-MES-1; first compound 0.5 µM
  relative viability: 0.927
UMC-11; first compound 0.005 µM
  relative viability: 0.79
UMC-11; first compound 0.01581 µM
  relative viability: 0.822
UMC-11; first compound 0.05 µM
  relative viability: 0.821
UMC-11; first compound 0.1581 µM
  relative viability: 0.759
UMC-11; first compound 0.5 µM
  relative viability: 0.444
